Measurements: patent US20260035363A1, “COMPOUNDS AND METHODS OF USE THEREOF AS ANTIBACTERIAL AGENTS” (priority 2019, published 2026)
Converted amounts (≈) assume the structure as drawn. Like-named read-outs stand apart in the source and are kept apart here.

Key:
Assay type in all cases: cell-based
[1] = test system: Mycobacterium tuberculosis (Mtb-GFP; H37Rv pMSP12::GFP); test: microbe, parasite or virus in culture; settings: 168 h, pH 6.8, read-out: Mtb Cho MITC95, cholesterol carbon source, pH 6.8, 7-day growth, GFP fluorescence, lowest concentration inhibiting 95% of growth
[2] = test system: Mycobacterium tuberculosis (Mtb-GFP; H37Rv pMSP12::GFP); test: microbe, parasite or virus in culture; settings: 168 h, pH 6.8, read-out: Mtb Glu MITC95, glucose carbon source, pH 6.8, 7-day growth, GFP fluorescence, lowest concentration inhibiting 95% of growth
[3] = test system: mitochondrial protein synthesis in HepG2 cells; test: Mitochondrial protein synthesis assay (COX-I to SDH-A ratio, In Cell ELISA); settings: 4 days, ratio of COX-I to SDH-A levels, read-out: MPS IC50
Procedure: Mitochondrial Protein Synthesis Assay
Inhibition of mitochondrial protein synthesis was assessed in HepG2 cells by comparing the levels of two subunits of oxidative phosphorylation enzyme complexes, subunit I of Complex IV (COX-I) and the 70 kDa subunit of Complex II (SDH-A). COX-I is mitochondrial DNA encoded and SDH-A is nuclear DNA encoded. HepG2 cells were seeded in 96-well collagen coated plates at 8,000 cells per well and exposed to 2-fold serial dilutions of compounds from 100 μM to 6.25 μM. Microtiter plates were incubated for approximately 5 replication cycles (4 days) prior to assessment of protein levels using a kit as described by the manufacturer (ab110217 MitoBiogenesis In Cell ELISA Kit, Abcam, Cambridge, MA). Inhibition of mitochondrial protein synthesis was expressed as a ratio of COX-1 to SDH-A levels.

Row | SMILES | MIC [1] [µM] | MIC [2] [µM] | IC50 ([3]; Homo sapiens, HepG2, 96 h) [µM] | IC50 [3] [µM]
1 | CN1CC(S(=O)(=O)c2ccc(-c3c(F)cc(C4=NO[C@@H](CO)C4)cc3F)cc2)C1 [Example 41, {(5R)-3-[2,6-Difluoro-4′-(1-methylazetidine-3-sulfonyl)[1,1′-biphenyl]-4-yl]-4,5-dihydro-1,2-oxazol-5-yl}methanol] | 2.34 (≈ 0.989 µg/mL) | 1.56 (≈ 0.659 µg/mL) | > 100 | –
2 | CN=S1(=O)CCC(F)(c2c(F)cc(C3=NO[C@@H](CNC(=O)OC)C3)cc2F)CC1 (single isomer, unassigned) [Example 9] | – | – | – | > 100
3 | CN1CC(S(=O)(=O)c2ccc(-c3c(F)cc(C4=NO[C@@H](CNS(C)(=O)=O)C4)cc3F)cc2)C1 [Example 33, N-({(5R)-3-[2,6-Difluoro-4′-(1-methylazetidine-3-sulfonyl)[1,1′-biphenyl]-4-yl]-4,5-dihydro-1,2-oxazol-5-yl}methyl) methanesulfonamide] | 1.66 (≈ 0.829 µg/mL) | 1.56 (≈ 0.779 µg/mL) | > 100 | –
4 | COC(=O)NC[C@H]1CC(c2cc(F)c(C3(F)CCS(=O)(=O)CC3)c(F)c2)=NO1 [Example 2, Methyl N-[[(5R)-3-[3,5-difluoro-4-(4-fluoro-1,1-dioxo-thian-4-yl)phenyl]-4,5-dihydroisoxazol-5-yl]methyl]carbamate] | 1.6 (≈ 0.673 µg/mL) | 1.6 (≈ 0.673 µg/mL) | > 100 | –
5 | CN=S1(=O)CCC(F)(c2c(F)cc(C3=NO[C@@H](CNC(C)=O)C3)cc2F)CC1 (stereo partly drawn) [Example 30, N-{[(5R)-3-{3,5-Difluoro-4-[4-fluoro-1-(methylimino)-1-oxo-1λ^6-thian-4-yl]phenyl}-4,5-dihydro-1,2-oxazol-5-yl]methyl}acetamide] | – | – | – | > 100
6 | Fc1cc(C2=NO[C@@H](Cn3ccnn3)C2)ccc1-c1ccn2c(C3CNC3)nnc2c1 [Example 37, 3-(Azetidin-3-yl)-7-(2-fluoro-4-{(5R)-5-[(1H-1,2,3-triazol-1-yl)methyl]-4,5-dihydro-1,2-oxazol-3-yl}phenyl)[1,2,4]triazolo[4,3-a]pyridine] | 1.56 (≈ 0.653 µg/mL) | 0.78 (≈ 0.326 µg/mL) | 65 | –
7 | COC(=O)NC[C@H]1CC(c2cc(F)c(N3CCS(=O)(=O)CC3)c(F)c2)=NO1 [Example 4, Methyl N-[[(5R)-3-[4-(1,1-dioxo-1,4-thiazinan-4-yl)-3,5-difluoro-phenyl]-4,5-dihydroisoxazol-5-yl]methyl]carbamate] | 3.12 (≈ 1.26 µg/mL) | 3.12 (≈ 1.26 µg/mL) | > 100 | –
8 | CC(=O)NC[C@H]1CC(c2ccc(-c3ccc(S(=O)(=O)C4(C)CN(C)C4)cc3)c(F)c2)=NO1 [Example 18, N-[[(5R)-3-[4-[4-(1,3-Dimethylazetidin-3-yl)sulfonylphenyl]-3-fluoro-phenyl]-4,5-dihydroisoxazol-5-yl]methyl]acetamide] | 0.39 (≈ 0.179 µg/mL) | 0.39 (≈ 0.179 µg/mL) | 13 | –
9 | CN=S1(=O)CCC(F)(c2c(F)cc(C3=NO[C@@H](CNC(=O)OC)C3)cc2F)CC1 (single isomer, unassigned) [Example 8] | 3.12 (≈ 1.35 µg/mL) | 3.12 (≈ 1.35 µg/mL) | > 100 | –
10 | O=S1(=O)CCC(F)(c2c(F)cc(C3=NO[C@@H](Cn4ccnn4)C3)cc2F)CC1 [Example 1, 4-[2,6-Difluoro-4-[(5R)-5-(triazol-1-ylmethyl)-4,5-dihydroisoxazol-3-yl]phenyl]-4-fluoro-thiane 1,1-dioxide] | 1.2 (≈ 0.497 µg/mL) | 1.2 (≈ 0.497 µg/mL) | 93 | –
11 | CN1CC(S(=O)(=O)c2ccc(-c3ccc(C4=NO[C@@H](CNS(C)(=O)=O)C4)cc3F)cc2)C1 [Example 11, N-({(5R)-3-[2-Fluoro-4′-(1-methylazetidine-3-sulfonyl)[1,1′-biphenyl]-4-yl]-4,5-dihydro-1,2-oxazol-5-yl}methyl)methanesulfonamide] | 1.17 (≈ 0.563 µg/mL) | 0.975 (≈ 0.47 µg/mL) | > 100 | –
12 | CC1(S(=O)(=O)c2ccc(-c3ccc(C4=NO[C@@H](Cn5ccnn5)C4)cc3F)cc2)CNC1 [Example 23, 1-({(5R)-3-[2-Fluoro-4′-(3-methylazetidine-3-sulfonyl)[1,1′-biphenyl]-4-yl]-4,5-dihydro-1,2-oxazol-5-yl}methyl)-1H-1,2,3-triazole] | 0.78 (≈ 0.355 µg/mL) | 1.56 (≈ 0.711 µg/mL) | 16 | –
13 | CS(=O)(=O)NC[C@H]1CC(c2ccc(-c3ccc(S(C)(=O)=O)cc3)c(F)c2)=NO1 [Example 19, N-({(5R)-3-[2-Fluoro-4′-(methanesulfonyl)[1,1′-biphenyl]-4-yl]-4,5-dihydro-1,2-oxazol-5-yl}methyl) methanesulfonamide] | 9.38 (≈ 4 µg/mL) | 6.25 (≈ 2.67 µg/mL) | > 100 | –
14 | O=S1(=O)CCC(F)(c2c(F)cc(C3=NO[C@@H](CO)C3)cc2F)CC1 [Example 47, 4-{2,6-Difluoro-4-[(5R)-5-(hydroxymethyl)-4,5-dihydro-1,2-oxazol-3-yl]phenyl}-4-fluoro-1λ^6-thiane-1,1-dione] | 6.25 (≈ 2.27 µg/mL) | 6.25 (≈ 2.27 µg/mL) | > 100 | –
15 | CN1CC(F)(S(=O)(=O)c2ccc(-c3ccc(C4=NO[C@@H](Cn5ccnn5)C4)cc3F)cc2)C1 [Example 44, l-({(5R)-3-[2-Fluoro-4′-(3-fluoro-1-methylazetidine-3-sulfonyl)[1,1′-biphenyl]-4-yl]-4,5-dihydro-1,2-oxazol-5-yl}methyl)-1H-1,2,3-triazole] | 0.12 (≈ 0.0568 µg/mL) | 0.09 (≈ 0.0426 µg/mL) | 1.4 | –
16 | CN1CC(C)(C(F)(F)c2ccc(-c3ccc(C4=NO[C@@H](Cn5ccnn5)C4)cc3F)cc2)C1 [Example 10, 1-{[(5R)-3-{4′-[(1,3-Dimethylazetidin-3-yl)(difluoro)methyl]-2-fluoro[1,1′-biphenyl]-4-yl}-4,5-dihydro-1,2-oxazol-5-yl]methyl}-1H-1,2,3-triazole] | 0.19 (≈ 0.0865 µg/mL) | 0.19 (≈ 0.0865 µg/mL) | 22 | –
17 | CN1CCC(C)(S(=O)(=O)c2ccc(-c3ccc(C4=NO[C@@H](Cn5ccnn5)C4)cc3F)cc2)C1 (stereo partly drawn) [Example 45, l-({(5R)-3-[4′-(1,3-Dimethylpyrrolidine-3-sulfonyl)-2-fluoro[1,1′-biphenyl]-4-yl]-4,5-dihydro-1,2-oxazol-5-yl}methyl)-1H-1,2,3-triazole] | 0.39 (≈ 0.189 µg/mL) | 0.19 (≈ 0.0919 µg/mL) | 4 | –
18 | CN=S1(=O)CCC(F)(c2c(F)cc(C3=NO[C@@H](Cn4ccnn4)C3)cc2F)CC1 (single isomer, unassigned) [Example 7] | – | – | – | > 100
19 | CN1CC(C)(S(=O)(=O)c2ccc(-c3ccc(C4=NO[C@@H](CNC(=O)OC5CC5)C4)cc3F)cc2)C1 [Example 17, Cyclopropyl N-[[(5R)-3-[4-[4-(1,3-dimethylazetidin-3-yl)sulfonylphenyl]-3-fluoro-phenyl]-4,5-dihydroisoxazol-5-yl]methyl]carbamate] | 0.39 (≈ 0.196 µg/mL) | 0.39 (≈ 0.196 µg/mL) | – | –
20 | N=S1(=O)CCC(F)(c2c(F)cc(C3=NO[C@@H](Cn4ccnn4)C3)cc2F)CC1 (stereo partly drawn) [Example 39, 4-(2,6-Difluoro-4-{(5R)-5-[(1H-1,2,3-triazol-1-yl)methyl]-4,5-dihydro-1,2-oxazol-3-yl}phenyl)-4-fluoro-1-imino-1λ^6-thian-1-one] | – | – | – | > 100
21 | O=S1(=O)CCN(c2c(F)cc(C3=NO[C@@H](Cn4ccnn4)C3)cc2F)CC1 [Example 5, 4-(2,6-Difluoro-4-{(5R)-5-[(1H-1,2,3-triazol-1-yl)methyl]-4,5-dihydro-1,2-oxazol-3-yl}phenyl)-1λ^6-thiomorpholine-1,1-dione] | 3.12 (≈ 1.24 µg/mL) | 3.12 (≈ 1.24 µg/mL) | – | –
